According to ChEMBL document CHEMBL5537189 (J Med Chem, 2024):

What was measured:
[1] = molecular target: T1, Retinoic acid receptor RXR-alpha (Homo sapiens, UniProt P19793)
T1 sequence (P19793 whole entry): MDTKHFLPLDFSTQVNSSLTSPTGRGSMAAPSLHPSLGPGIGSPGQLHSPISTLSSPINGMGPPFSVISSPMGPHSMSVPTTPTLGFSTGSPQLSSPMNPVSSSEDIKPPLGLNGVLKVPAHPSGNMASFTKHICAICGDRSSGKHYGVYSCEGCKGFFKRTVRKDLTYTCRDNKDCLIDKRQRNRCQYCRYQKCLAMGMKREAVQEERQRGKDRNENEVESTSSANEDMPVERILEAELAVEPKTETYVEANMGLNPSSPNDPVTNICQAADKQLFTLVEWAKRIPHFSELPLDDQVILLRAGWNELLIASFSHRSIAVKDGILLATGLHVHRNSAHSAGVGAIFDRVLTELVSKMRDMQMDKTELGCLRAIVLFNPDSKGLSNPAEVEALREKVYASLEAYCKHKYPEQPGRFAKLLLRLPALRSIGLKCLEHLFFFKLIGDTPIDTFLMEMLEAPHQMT

[2] = molecular target: T2, Retinoic acid receptor RXR-gamma (Homo sapiens, UniProt P48443)
T2 sequence (P48443 whole entry): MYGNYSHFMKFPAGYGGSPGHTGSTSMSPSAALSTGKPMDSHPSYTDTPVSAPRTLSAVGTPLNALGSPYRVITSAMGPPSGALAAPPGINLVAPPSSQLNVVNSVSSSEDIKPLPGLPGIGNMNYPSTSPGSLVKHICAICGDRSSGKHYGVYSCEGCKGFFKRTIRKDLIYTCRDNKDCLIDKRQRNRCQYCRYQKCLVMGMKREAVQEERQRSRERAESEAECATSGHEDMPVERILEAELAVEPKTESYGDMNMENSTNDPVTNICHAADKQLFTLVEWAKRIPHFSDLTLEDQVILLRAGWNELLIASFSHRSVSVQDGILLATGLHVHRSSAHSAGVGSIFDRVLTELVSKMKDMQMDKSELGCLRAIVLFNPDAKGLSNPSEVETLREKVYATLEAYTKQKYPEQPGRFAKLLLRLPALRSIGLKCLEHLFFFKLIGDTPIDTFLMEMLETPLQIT

[3] = molecular target: T3, Retinoic acid receptor RXR-beta (Homo sapiens, UniProt P28702)
T3 sequence (P28702 whole entry): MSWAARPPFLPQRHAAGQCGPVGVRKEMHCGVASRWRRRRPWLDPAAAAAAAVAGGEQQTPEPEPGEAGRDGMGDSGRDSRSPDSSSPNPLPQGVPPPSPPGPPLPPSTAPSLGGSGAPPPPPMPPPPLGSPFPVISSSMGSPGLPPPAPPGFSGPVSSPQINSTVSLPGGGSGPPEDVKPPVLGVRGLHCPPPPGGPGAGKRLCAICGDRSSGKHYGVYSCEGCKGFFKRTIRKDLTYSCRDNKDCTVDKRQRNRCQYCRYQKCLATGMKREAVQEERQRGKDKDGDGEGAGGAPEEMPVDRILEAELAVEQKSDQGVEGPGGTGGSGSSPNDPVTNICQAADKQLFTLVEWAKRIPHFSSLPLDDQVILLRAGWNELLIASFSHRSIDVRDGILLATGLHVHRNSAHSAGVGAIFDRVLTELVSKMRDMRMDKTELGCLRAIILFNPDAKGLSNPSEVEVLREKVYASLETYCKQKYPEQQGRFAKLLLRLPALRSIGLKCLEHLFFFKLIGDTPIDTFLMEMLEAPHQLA
Description: Partial agonist activity at recombinant human RXR beta LBD (298 to 533 residues) expressed in Escherichia coli Rosetta incubated for 16 hrs by Gal4-hybrid reporter gene based Dual-glo luciferase assay

[4] = molecular target: T3, Retinoic acid receptor RXR-beta; assay: Partial agonist activity at full length human RXR beta transfected in HEK293T cells assessed as DR1 activation incubated for 16 hrs by Dual-glo luciferase assay; type: cell-based

| Compound | EC50 [1] | EC50 [2] | EC50 [3] | EC50 [4] |
| --- | --- | --- | --- | --- |
| CC1(C)CCN(c2cc(Cl)nc(OCCC(=O)O)n2)c2ccccc21 | 9 nM | 11 nM | – | – |
| Cc1cc(C)c2c(c1)N(c1cc(Cl)nc(OCCC(=O)O)n1)CCC2 | – | 40 nM | – | – |
| CC1Cc2ccccc2N(c2cc(Cl)nc(OCCC(=O)O)n2)C1 (stereo unspecified) | 29 nM | 220 nM | 34 nM | – |
| CN(c1ccccc1)c1cc(Cl)nc(OCCC(=O)O)n1 | 4200 nM | 31000 nM | – | – |
| CN(c1cccc(C(F)(F)F)c1)c1cc(Cl)nc(OCCC(=O)O)n1 | – | 2700 nM | – | – |
| CN(c1cc(Cl)nc(OCCC(=O)O)n1)c1cccc(Cl)c1Cl | 3200 nM | 14000 nM | – | – |
| CN(c1cc(Cl)cc(Cl)c1)c1cc(Cl)nc(OCCC(=O)O)n1 | 260 nM | – | – | – |
| O=C(O)CCOc1nc(Cl)cc(N2CCCc3ccccc32)n1 | 110 nM | 680 nM | – | – |
| CN(c1cccc(Br)c1)c1cc(Cl)nc(OCCC(=O)O)n1 | – | 1800 nM | – | – |
| CN(c1cc(Cl)nc(OCCC(=O)O)n1)c1cccc2c1CCC2 | – | 1200 nM | – | – |
| Cc1cc(C)cc(N(C)c2cc(Cl)nc(OCCC(=O)O)n2)c1 | – | 160 nM | – | – |

The remaining lines, values ahead:

| EC50 [1] | EC50 [2] | EC50 [3] | EC50 [4] | Compound |
| --- | --- | --- | --- | --- |
| 7 nM | 50 nM | 100 nM | – | CC1CCN(c2cc(Cl)nc(OCCC(=O)O)n2)c2ccccc21 (stereo unspecified) |
| – | – | – | Not Active | CC1CCc2ccccc2N1c1cc(Cl)nc(OCCC(=O)O)n1 (stereo unspecified) |
| – | 6000 nM | – | – | CN(c1ccc(Cl)c(Cl)c1)c1cc(Cl)nc(OCCC(=O)O)n1 |
| 400 nM | 2600 nM | – | – | Cc1cccc(N(C)c2cc(Cl)nc(OCCC(=O)O)n2)c1 |
| 560 nM | 2400 nM | – | – | CN(c1cccc(Cl)c1)c1cc(Cl)nc(OCCC(=O)O)n1 |
| 150 nM | – | – | – | CN(c1cc(C(F)(F)F)cc(C(F)(F)F)c1)c1cc(Cl)nc(OCCC(=O)O)n1 |
| 40 nM | 60 nM | 34 nM | – | Cc1ccc2c(c1)N(c1cc(Cl)nc(OCCC(=O)O)n1)CCC2C (stereo unspecified) |
| 38 nM | – | – | – | Cc1ccc2c(c1)N(c1cc(Cl)nc(OCCC(=O)O)n1)CCC2 |
| – | 100 nM | – | – | CC1CCN(c2cc(Cl)nc(OCCC(=O)O)n2)c2cc(Cl)ccc21 (stereo unspecified) |
| 90 nM | 480 nM | – | – | Cc1cccc2c1CCCN2c1cc(Cl)nc(OCCC(=O)O)n1 |
| 19 nM | 140 nM | – | – | O=C(O)CCOc1nc(Cl)cc(N2CCCc3ccc(Cl)cc32)n1 |
